According to ChEMBL document CHEMBL4393689, “Discovery of fluorescent coumarin-benzo[b]thiophene 1, 1-dioxide conjugates as mitochondria-targeting antitumor STAT3 inhibitors” (Eur J Med Chem, 2019):
The source made the active and inactive calls. The rule behind the calls is not given here.

Key:
MDA-MB-231 [1] = experiment: Antiproliferative activity against human MDA-MB-231 cells assessed as reduction in cell viability incubated for 48 hrs by MTT assay; format: functional, cell-based; conditions: MDA-MB-231, 48 h
HCT-116 = experiment: Antiproliferative activity against human HCT116 cells assessed as reduction in cell viability incubated for 48 hrs by MTT assay; format: functional, cell-based; conditions: HCT-116, 48 h
HepG2 = experiment: Antiproliferative activity against human HepG2 cells assessed as reduction in cell viability incubated for 48 hrs by MTT assay; format: functional, cell-based; conditions: HepG2, 48 h
MCF7 = experiment: Antiproliferative activity against human MCF7 cells assessed as reduction in cell viability incubated for 48 hrs by MTT assay; format: functional, cell-based; conditions: MCF7, 48 h
MCF-10A = experiment: Cytotoxicity against human MCF10A cells assessed as reduction in cell viability incubated for 48 hrs by MTT assay; format: cell-based
L02 = experiment: Cytotoxicity against human LO2 cells assessed as reduction in cell viability incubated for 48 hrs by MTT assay; format: cell-based; conditions: L02, 48 h
[2] = Selectivity index, ratio of IC50 for human MCF10A cells to IC50 for human MDA-MB-231 cells; format: toxicity; conditions: MCF10A cells versus MDA-MB-231 cells, read-out: Ratio IC50
[3] = Selectivity index, ratio of IC50 for human L02 cells to IC50 for human HepG2 cells; format: toxicity; conditions: L02 cells versus HepG2 cells, read-out: Ratio IC50
[4] = target: Signal transducer and activator of transcription 3 (Homo sapiens) (UniProt P40763); experiment: Inhibition of STAT3 in human MDA-MB-231 cells assessed as decrease in STAT3 phosphorylation at Tyr705 residue at 4 uM incubated for 24 hrs by Western blot analysis; format: cell-based
[5] = target: Proto-oncogene tyrosine-protein kinase Src (Homo sapiens) (UniProt P12931); experiment: Inhibition of Src in human MDA-MB-231 cells assessed as reduction in Src phosphorylation at 4 uM incubated for 24 hrs by Western blot analysis; format: cell-based
[6] = target: Tyrosine-protein kinase JAK2 (Homo sapiens) (UniProt O60674); experiment: Inhibition of JAK2 in human MDA-MB-231 cells assessed as reduction in JAK2 phosphorylation at 4 uM incubated for 24 hrs by Western blot analysis; format: cell-based
MDA-MB-231 [7] = experiment: Induction of apoptosis in human MDA-MB-231 cells assessed as increase in cleaved caspase-9 levels at 4 uM incubated for 24 hrs by Western blot analysis; format: functional, cell-based
MDA-MB-231 [8] = experiment: Induction of apoptosis in human MDA-MB-231 cells assessed as increase in cleaved caspase-3 levels at 4 uM incubated for 24 hrs by Western blot analysis; format: functional, cell-based
MDA-MB-231 [9] = experiment: Induction of apoptosis in human MDA-MB-231 cells assessed as increase in cleaved PARP levels at 4 uM incubated for 24 hrs by Western blot analysis; format: functional, cell-based
[10] = target: T1, Signal transducer and activator of transcription 1-alpha/beta (Homo sapiens) (UniProt P42224); experiment: Inhibition of STAT1 in human MDA-MB-231 cells assessed as decrease in STAT1 phosphorylation at Y701 residue at 4 uM incubated for 24 hrs by Western blot analysis; format: cell-based
T1 sequence (whole entry): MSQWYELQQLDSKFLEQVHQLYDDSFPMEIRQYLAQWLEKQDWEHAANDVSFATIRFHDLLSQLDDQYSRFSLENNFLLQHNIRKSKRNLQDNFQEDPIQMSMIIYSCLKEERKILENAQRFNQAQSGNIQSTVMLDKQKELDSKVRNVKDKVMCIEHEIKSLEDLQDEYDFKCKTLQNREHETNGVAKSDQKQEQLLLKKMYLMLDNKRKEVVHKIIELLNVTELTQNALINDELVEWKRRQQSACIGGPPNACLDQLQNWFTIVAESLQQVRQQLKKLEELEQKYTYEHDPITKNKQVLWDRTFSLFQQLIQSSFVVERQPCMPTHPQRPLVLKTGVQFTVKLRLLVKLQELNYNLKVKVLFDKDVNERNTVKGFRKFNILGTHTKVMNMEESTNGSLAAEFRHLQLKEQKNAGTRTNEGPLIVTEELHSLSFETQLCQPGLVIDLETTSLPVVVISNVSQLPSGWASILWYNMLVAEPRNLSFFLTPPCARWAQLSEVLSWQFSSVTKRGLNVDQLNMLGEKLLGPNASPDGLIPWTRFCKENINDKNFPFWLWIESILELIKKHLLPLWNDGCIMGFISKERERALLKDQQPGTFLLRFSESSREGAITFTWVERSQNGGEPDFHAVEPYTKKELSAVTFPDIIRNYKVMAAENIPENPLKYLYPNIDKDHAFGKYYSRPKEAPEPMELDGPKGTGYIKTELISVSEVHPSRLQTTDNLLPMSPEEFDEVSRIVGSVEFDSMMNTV

[11] = target: Signal transducer and activator of transcription 3 (Homo sapiens) (UniProt P40763); experiment: Inhibition of STAT3 in human MDA-MB-231 cells assessed as decrease in STAT3-DNA binding at 4 uM incubated for 24 hrs by electrophoretic mobility shift assay; format: cell-based
[12] = target: Mitogen-activated protein kinase; ERK1/ERK2 (Homo sapiens) (UniProt P27361+P28482); experiment: Inhibition of ERK 1/2 in human MDA-MB-231 cells assessed as reduction in ERK 1/2 phosphorylation at 4 uM incubated for 24 hrs by Western blot analysis; format: cell-based
Sequence of Mitogen-activated protein kinase; ERK1/ERK2 (Homo sapiens) (P27361 whole entry, looked up): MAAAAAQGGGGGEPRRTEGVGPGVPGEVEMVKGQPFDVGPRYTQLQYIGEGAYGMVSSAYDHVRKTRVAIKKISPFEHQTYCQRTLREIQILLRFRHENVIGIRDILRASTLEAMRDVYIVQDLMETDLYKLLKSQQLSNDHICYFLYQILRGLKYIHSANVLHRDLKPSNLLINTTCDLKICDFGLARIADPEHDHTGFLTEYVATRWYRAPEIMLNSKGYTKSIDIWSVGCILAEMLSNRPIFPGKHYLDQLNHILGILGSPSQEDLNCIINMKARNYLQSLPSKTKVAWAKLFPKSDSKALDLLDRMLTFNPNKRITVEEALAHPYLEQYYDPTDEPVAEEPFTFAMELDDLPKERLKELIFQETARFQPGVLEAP
Sequence of Mitogen-activated protein kinase; ERK1/ERK2 (Homo sapiens) (P28482 whole entry, looked up): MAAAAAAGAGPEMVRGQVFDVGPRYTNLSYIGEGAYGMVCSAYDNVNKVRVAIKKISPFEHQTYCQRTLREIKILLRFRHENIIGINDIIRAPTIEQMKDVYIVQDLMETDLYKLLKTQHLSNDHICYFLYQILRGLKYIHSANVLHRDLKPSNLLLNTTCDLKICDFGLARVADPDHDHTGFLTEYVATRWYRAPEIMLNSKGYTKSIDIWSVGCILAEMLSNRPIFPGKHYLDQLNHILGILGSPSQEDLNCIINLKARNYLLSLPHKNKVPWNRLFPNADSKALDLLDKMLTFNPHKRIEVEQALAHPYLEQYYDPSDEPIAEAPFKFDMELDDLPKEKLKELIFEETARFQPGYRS

Sequence of Signal transducer and activator of transcription 3 (Homo sapiens) (P40763 whole entry): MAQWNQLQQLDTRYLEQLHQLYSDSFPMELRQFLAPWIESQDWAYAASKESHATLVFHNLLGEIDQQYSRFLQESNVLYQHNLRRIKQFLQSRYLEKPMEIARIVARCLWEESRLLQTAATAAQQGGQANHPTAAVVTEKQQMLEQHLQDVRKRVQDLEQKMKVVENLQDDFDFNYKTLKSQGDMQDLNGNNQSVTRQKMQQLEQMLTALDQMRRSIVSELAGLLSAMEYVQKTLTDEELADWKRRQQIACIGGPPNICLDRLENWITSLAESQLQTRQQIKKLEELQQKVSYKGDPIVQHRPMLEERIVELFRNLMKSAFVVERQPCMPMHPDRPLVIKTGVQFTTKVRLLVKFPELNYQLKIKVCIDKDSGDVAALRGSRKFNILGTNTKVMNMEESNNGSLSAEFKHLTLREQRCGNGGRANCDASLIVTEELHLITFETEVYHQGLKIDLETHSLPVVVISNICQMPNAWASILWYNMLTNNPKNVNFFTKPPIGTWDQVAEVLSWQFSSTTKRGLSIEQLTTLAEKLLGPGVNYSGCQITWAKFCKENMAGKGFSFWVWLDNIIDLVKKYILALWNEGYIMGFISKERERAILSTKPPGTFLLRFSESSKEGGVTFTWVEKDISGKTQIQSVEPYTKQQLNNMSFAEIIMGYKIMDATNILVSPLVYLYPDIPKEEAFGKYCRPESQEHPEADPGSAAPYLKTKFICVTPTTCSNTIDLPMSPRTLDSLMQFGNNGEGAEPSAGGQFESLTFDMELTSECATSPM
Sequence of Tyrosine-protein kinase JAK2 (Homo sapiens) (O60674 whole entry): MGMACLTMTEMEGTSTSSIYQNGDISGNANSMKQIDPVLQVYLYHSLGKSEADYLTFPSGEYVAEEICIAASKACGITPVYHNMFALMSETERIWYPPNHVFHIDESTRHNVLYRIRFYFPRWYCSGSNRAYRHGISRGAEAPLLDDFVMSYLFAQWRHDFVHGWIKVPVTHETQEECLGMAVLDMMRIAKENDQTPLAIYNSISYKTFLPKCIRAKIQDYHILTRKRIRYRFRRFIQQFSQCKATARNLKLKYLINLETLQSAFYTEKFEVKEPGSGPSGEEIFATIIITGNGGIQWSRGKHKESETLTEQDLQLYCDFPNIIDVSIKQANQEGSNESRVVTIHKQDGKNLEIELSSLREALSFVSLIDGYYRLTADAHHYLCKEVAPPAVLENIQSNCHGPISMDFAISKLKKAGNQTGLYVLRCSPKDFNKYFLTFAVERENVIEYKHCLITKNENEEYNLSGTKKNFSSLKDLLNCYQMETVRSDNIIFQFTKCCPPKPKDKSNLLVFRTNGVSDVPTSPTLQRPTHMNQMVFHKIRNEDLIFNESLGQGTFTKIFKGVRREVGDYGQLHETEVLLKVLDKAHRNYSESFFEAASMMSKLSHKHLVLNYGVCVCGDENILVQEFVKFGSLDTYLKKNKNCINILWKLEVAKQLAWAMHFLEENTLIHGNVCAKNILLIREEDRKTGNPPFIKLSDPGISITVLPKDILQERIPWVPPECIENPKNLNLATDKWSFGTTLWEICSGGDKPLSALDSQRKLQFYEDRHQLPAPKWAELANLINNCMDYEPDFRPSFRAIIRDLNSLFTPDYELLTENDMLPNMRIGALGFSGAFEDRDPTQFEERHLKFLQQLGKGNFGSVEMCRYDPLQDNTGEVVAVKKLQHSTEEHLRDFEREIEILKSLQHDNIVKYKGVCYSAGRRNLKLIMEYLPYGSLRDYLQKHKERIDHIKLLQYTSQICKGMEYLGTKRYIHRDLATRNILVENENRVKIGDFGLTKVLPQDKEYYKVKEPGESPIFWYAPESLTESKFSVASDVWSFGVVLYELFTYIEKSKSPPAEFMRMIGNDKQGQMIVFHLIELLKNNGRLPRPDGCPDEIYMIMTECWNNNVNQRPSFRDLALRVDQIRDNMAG
Sequence of Proto-oncogene tyrosine-protein kinase Src (Homo sapiens) (P12931 2-536 limits assumed): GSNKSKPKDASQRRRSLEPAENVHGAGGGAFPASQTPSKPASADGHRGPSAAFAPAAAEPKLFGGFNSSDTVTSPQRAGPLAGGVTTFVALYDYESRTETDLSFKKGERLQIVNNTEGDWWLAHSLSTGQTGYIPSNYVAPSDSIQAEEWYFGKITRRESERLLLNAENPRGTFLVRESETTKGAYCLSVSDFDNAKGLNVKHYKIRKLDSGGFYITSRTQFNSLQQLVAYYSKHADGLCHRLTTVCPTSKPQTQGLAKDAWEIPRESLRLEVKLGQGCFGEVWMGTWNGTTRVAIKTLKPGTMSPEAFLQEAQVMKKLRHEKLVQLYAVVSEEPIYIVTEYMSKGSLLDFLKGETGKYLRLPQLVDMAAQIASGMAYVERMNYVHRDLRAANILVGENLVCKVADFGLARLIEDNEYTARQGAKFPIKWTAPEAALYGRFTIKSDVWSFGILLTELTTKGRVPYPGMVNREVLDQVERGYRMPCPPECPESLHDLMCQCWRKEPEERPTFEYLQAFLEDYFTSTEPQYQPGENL

Row | SMILES | IC50 (MDA-MB-231 [1]) [µM] | IC50 (HCT-116) [µM] | IC50 (HepG2) [µM] | IC50 (MCF7) [µM] | also measured
1 | CCN(CC)c1ccc2cc(C(=O)N3CCN(C(=O)C4=Cc5ccc(F)cc5S4(=O)=O)CC3)c(=O)oc2c1 | 3.2 | 4.26 | 4.9 | 6.35 | 
2 | CCN(CC)c1ccc2cc(C(=O)N3CCN(C(=O)C4=Cc5ccc(Cl)cc5S4(=O)=O)CC3)c(=O)oc2c1 | 2.03 | 4.44 | 5.29 | 5.23 | 
3 | CCN(CC)c1ccc2cc(C(=O)N3CCN(C(=O)C4=Cc5cc([N+](=O)[O-])ccc5S4(=O)=O)CC3)c(=O)oc2c1 | 4.92 | 6.74 | 7.47 | 6.33 | 
4 | CCN(CC)c1ccc2cc(C(=O)N3CCN(C(=O)C4=Cc5c([N+](=O)[O-])cccc5S4(=O)=O)CC3)c(=O)oc2c1 | 3.46 | 3.24 | 4.91 | 4.41 | 
5 | CCN(CC)c1ccc2cc(C(=O)N3CCN(C(=O)C4=Cc5ccc(OC)cc5S4(=O)=O)CC3)c(=O)oc2c1 | 1.92 | 2.3 | 4.21 | 2.28 | 
6 | CCN(CC)c1ccc2cc(C(=O)N3CCN(C(=O)C4=Cc5c(OC)cccc5S4(=O)=O)CC3)c(=O)oc2c1 | 1.84 | 2.02 | 2.94 | 3.95 | 
7 | CCN(CC)c1ccc2cc(C(=O)N3CCN(C(=O)C4=Cc5ccc(Br)cc5S4(=O)=O)CC3)c(=O)oc2c1 | 2.74 | 2.79 | 5.52 | 5.04 | 
8 | CCN(CC)c1ccc2cc(C(=O)N3CCN(C(=O)C4=Cc5cc(Br)ccc5S4(=O)=O)CC3)c(=O)oc2c1 | 2.23 | 3.83 | 5.15 | 3.9 | 
9 | CCN(CC)c1ccc2cc(C(=O)N3CCN(C(=O)C4=Cc5cc(Cl)ccc5S4(=O)=O)CC3)c(=O)oc2c1 | 2.35 | 4.12 | 5.55 | 4.39 | 
10 | CCN(CC)c1ccc2cc(C(=O)N3CCN(C(=O)C4=Cc5ccc([N+](=O)[O-])cc5S4(=O)=O)CC3)c(=O)oc2c1 | 5.22 | 4.95 | 7.09 | 6.76 | 

Further lines, with some results ahead:

Row | IC50 (MDA-MB-231 [1]) [µM] | IC50 (HCT-116) [µM] | IC50 (HepG2) [µM] | IC50 (MCF7) [µM] | SMILES | also measured
11 | 27.7 | 9.33 | 22.9 | 15.2 | O=S1(=O)C=Cc2ccccc21 | 
12 | 2.32 | 3.78 | 4.31 | 3 | CCN(CC)c1ccc2cc(C(=O)N3CCN(C(=O)C4=Cc5ccccc5S4(=O)=O)CC3)c(=O)oc2c1 | 
13 | 1.81 | 2.16 | 3.52 | 3.71 | O=[N+]([O-])c1ccc2c(c1)S(=O)(=O)C=C2 | IC50 (MCF-10A): 6.11 µM; IC50 (L02): 5.2 µM; selectivity ratio [2]: 3.4; selectivity ratio [3]: 1.5; inhibition [4]: Active; inhibition [5]: inactive; inhibition [6]: inactive; Activity (MDA-MB-231 [7]): Active; Activity (MDA-MB-231 [8]): Active; Activity (MDA-MB-231 [9]): Active; inhibition [10]: inactive; inhibition [11]: Active; inhibition [12]: inactive
14 | 2.24 | 1.57 | 4.49 | 4.44 | CCN(CC)c1ccc2cc(C(=O)N3CCN(C(=O)C4=Cc5c(Cl)cccc5S4(=O)=O)CC3)c(=O)oc2c1 | 
15 | 2.13 | 2.33 | 3.3 | 4.04 | CCN(CC)c1ccc2cc(C(=O)N3CCN(C(=O)C4=Cc5c(F)cccc5S4(=O)=O)CC3)c(=O)oc2c1 | 
16 | 2.32 | 2.97 | 4.74 | 3.2 | CCN(CC)c1ccc2cc(C(=O)N3CCN(C(=O)C4=Cc5cccc(Br)c5S4(=O)=O)CC3)c(=O)oc2c1 | 
